Source: PubChem BioAssay AID292 (DTP/NCI, 2004)
Values joined by “and” are separate entries in the source; they are usually repeats but may differ in a detail not shown here. Equal values may be shown once. Toxic doses and inconclusive results are not listed. The calls were made as follows: active = survival T/C of 150% or more; inactive = T/C below 125% in these data.

System: B6C3F1 mice, ip Sarcoma M5076, median survival T/C
Test: NCI In Vivo Anticancer Drug Screen. Data for tumor model Sarcoma M5076 (intraperitoneal) in B6C3F1 mice
Conditions: endpoint: median survival time, higher = longer survival
Summary of the method: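 Tumour cells were transplanted into mice, compound or vehicle was given, survival of both groups was followed, and the treated figure was expressed over the control figure.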

[1] = dose: 50.0 mg/kg/injection, schedule: Q04DX004 (ip), vehicle: saline
[2] = dose: 100.0 mg/kg/injection, schedule: Q04DX004 (ip), vehicle: saline
[3] = dose: 200.0 mg/kg/injection, schedule: Q04DX004 (ip), vehicle: saline
[4] = dose: 25.0 mg/kg/injection, schedule: Q04DX004 (ip), vehicle: suspension in saline
[5] = dose: 50.0 mg/kg/injection, schedule: Q04DX004 (ip), vehicle: suspension in saline
[6] = dose: 50.0 mg/kg/injection, schedule: Q04DX004 (ip), vehicle: saline with Tween-80
[7] = dose: 100.0 mg/kg/injection, schedule: Q04DX004 (ip), vehicle: saline with Tween-80
[8] = dose: 200.0 mg/kg/injection, schedule: Q04DX004 (ip), vehicle: saline with Tween-80
[9] = dose: 400.0 mg/kg/injection, schedule: Q04DX004 (ip), vehicle: saline with Tween-80

Measured: T/C

CN(C)CCOc1cccc2c1C(=O)c1ccccc1C2=O
inactive: dose: 50.0 mg/kg/injection, schedule: Q04DX004 (ip), vehicle: water 90 % of control | dose: 100.0 mg/kg/injection, schedule: Q04DX004 (ip), vehicle: water 97 % of control

CC(C)c1ccc(C2NC(=S)NC(=O)C2C#N)cc1 (stereo unspecified)
inactive: [1] 100 % of control | [2] 97 % of control | [3] 88 % of control

CC/C(=C(\c1ccccc1)c1ccc(OCCN(C)C)cc1)c1ccccc1
inactive: dose: 12.5 mg/kg/injection, schedule: Q04DX004 (ip), vehicle: Klucel (hydroxypropylcellulose) (HPC) 101 % of control | dose: 25.0 mg/kg/injection, schedule: Q04DX004 (ip), vehicle: Klucel (hydroxypropylcellulose) (HPC) 107 % of control | dose: 50.0 mg/kg/injection, schedule: Q04DX004 (ip), vehicle: Klucel (hydroxypropylcellulose) (HPC) 89 % of control and 103 % of control

CC1OC(O[C@H]2/C=C/C=C/C=C/C=C/C=C/C=C/C=C/[C@H](C)[C@@H](O)[C@@H](C)[C@H](C)OC(=O)C[C@H](O)C[C@H](O)CC[C@@H](O)[C@H](O)C[C@H](O)C[C@]3(O)C[C@H](O)[C@@H](C(=O)O)[C@H](C2)O3)C(O)C(N)C1O (stereo partly specified)
inactive: dose: 3.12 mg/kg/injection, schedule: Q04DX004 (ip), vehicle: suspension in saline 97 % of control | dose: 6.25 mg/kg/injection, schedule: Q04DX004 (ip), vehicle: suspension in saline 105 % of control | dose: 12.5 mg/kg/injection, schedule: Q04DX004 (ip), vehicle: suspension in saline 100 % of control and 101 % of control | [4] 100 % of control and 109 % of control | [5] 98 % of control and 107 % of control

C[C@@]12C(=O)OC(=O)[C@]1(C)[C@H]1CC[C@@H]2O1
inactive: dose: 125.0 micrograms/kg/injection, schedule: Q01DX009 (ip), vehicle: acetone 100 % of control | dose: 250.0 micrograms/kg/injection, schedule: Q01DX009 (ip), vehicle: acetone 115 % of control | dose: 500.0 micrograms/kg/injection, schedule: Q01DX009 (ip), vehicle: acetone 116 % of control | dose: 1000.0 micrograms/kg/injection, schedule: Q01DX009 (ip), vehicle: acetone 100 % of control

CNc1nc(N(C)C)nc(N(C)C)n1
inactive: [4] 92 % of control and 100 % of control | [5] 102 % of control and 109 % of control | dose: 100.0 mg/kg/injection, schedule: Q04DX004 (ip), vehicle: suspension in saline 113 % of control and 114 % of control | dose: 200.0 mg/kg/injection, schedule: Q04DX004 (ip), vehicle: suspension in saline 117 % of control and 120 % of control

O=C(O)CCCc1ccc(N(CCCl)CCCl)cc1
inactive: dose: 2.0 mg/kg/injection, schedule: Q04DX004 (ip), vehicle: saline with Tween-80 108 % of control | dose: 4.0 mg/kg/injection, schedule: Q04DX004 (ip), vehicle: saline with Tween-80 114 % of control and 123 % of control | dose: 8.0 mg/kg/injection, schedule: Q04DX004 (ip), vehicle: saline with Tween-80 118 % of control

Nc1cc(=O)n(Cc2ccco2)c(=S)[nH]1
inactive: [6] 106 % of control | [7] 97 % of control | [8] 106 % of control | [9] 107 % of control | dose: 800.0 mg/kg/injection, schedule: Q04DX004 (ip), vehicle: saline with Tween-80 97 % of control

CCOC(=O)Nc1cc2c(c(N)n1)N=C(c1ccccc1)CO2
inactive: [6] 101 % of control | [7] 107 % of control | [8] 109 % of control | [9] 105 % of control

COc1ccc(-c2c(N3CCOCC3)oc3cc(N4CCOCC4)c(O)cc23)cc1
inactive: [6] 95 % of control | [7] 104 % of control | [8] 98 % of control | [9] 95 % of control

O=c1[nH]cc(F)c(=O)[nH]1
inactive: dose: 12.5 mg/kg/injection, schedule: Q04DX004 (ip), vehicle: saline 104 % of control and 122 % of control | dose: 25.0 mg/kg/injection, schedule: Q04DX004 (ip), vehicle: saline 111 % of control and 120 % of control

CN(CN1C(=O)CCC1=O)CN1C(=O)CCC1=O
inactive: [1] 92 % of control | [2] 100 % of control | [3] 96 % of control | dose: 400.0 mg/kg/injection, schedule: Q04DX004 (ip), vehicle: saline 116 % of control

O=c1ccn(C2CC3[O][Sn]([c]4ccccc4)([c]4ccccc4)[O]CC3O2)c(=O)[nH]1 (stereo unspecified)
inactive: dose: 25.0 mg/kg/injection, schedule: Q04DX004 (ip), vehicle: distilled water + Tween-80 104 % of control | dose: 50.0 mg/kg/injection, schedule: Q04DX004 (ip), vehicle: distilled water + Tween-80 102 % of control | dose: 100.0 mg/kg/injection, schedule: Q04DX004 (ip), vehicle: distilled water + Tween-80 101 % of control | dose: 200.0 mg/kg/injection, schedule: Q04DX004 (ip), vehicle: distilled water + Tween-80 103 % of control | dose: 400.0 mg/kg/injection, schedule: Q04DX004 (ip), vehicle: distilled water + Tween-80 102 % of control

O=C1C2CC3CC1CC(Cl)(C3)C2
inactive: dose: 12.5 mg/kg/injection, schedule: Q04DX004 (ip), vehicle: saline with Tween-80 105 % of control | dose: 25.0 mg/kg/injection, schedule: Q04DX004 (ip), vehicle: saline with Tween-80 99 % of control | [6] 94 % of control
